Measured values as given in patent US11273168B2, “Methods of treating anxiety by administering a substituted quinolone” (OTSUKA PHARMACEUTICAL CO., LTD., priority 2010, dated 2022).
Structures can show the parent of a compound that is named as a salt. Where two headings read alike, the source gives them in different places.

Tests used:
Format in all cases: biochemical
Serotonin (5-HT) uptake = molecular target: T1, Serotonin (5-HT) uptake (Rattus norvegicus, UniProt P31652); test: Serotonin (5-HT) uptake inhibitory activity using rat brain synaptosome (frontal cortex); conditions: tritium-labeled 5-HT 8 nM, 37° C. 10 minutes
T1 construct: The suspension was used as a crude synaptosome fraction; from tissue; host or cells: rat (male Wistar) frontal cortex, crude synaptosome fraction
T1 sequence (P31652 whole entry): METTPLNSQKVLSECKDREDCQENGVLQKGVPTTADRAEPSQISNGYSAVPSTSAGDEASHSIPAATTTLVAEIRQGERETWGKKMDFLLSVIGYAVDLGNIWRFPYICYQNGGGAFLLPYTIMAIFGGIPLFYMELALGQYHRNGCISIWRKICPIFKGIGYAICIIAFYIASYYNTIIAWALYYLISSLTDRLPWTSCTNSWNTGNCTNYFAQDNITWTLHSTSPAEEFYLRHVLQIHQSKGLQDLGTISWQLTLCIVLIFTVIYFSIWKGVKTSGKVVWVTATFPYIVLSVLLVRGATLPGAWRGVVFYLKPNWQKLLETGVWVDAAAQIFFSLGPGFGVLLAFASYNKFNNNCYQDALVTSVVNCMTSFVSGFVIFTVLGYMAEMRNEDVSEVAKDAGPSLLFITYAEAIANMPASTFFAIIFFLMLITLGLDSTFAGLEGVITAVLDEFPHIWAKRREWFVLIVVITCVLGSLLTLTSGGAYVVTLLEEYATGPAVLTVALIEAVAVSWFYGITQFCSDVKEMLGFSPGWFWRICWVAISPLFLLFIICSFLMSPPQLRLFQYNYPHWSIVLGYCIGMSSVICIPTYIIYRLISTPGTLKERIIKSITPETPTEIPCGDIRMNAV
Experimental: Measurement of Serotonin (5-HT) Uptake Inhibitory Activity of Test Compound Using Rat Brain Synaptosome
(§1) Male Wistar rats were decapitated, and their brains were removed and dissected to remove the frontal cortex. The separated frontal cortex was placed in a 20-fold weight of a 0.32 molarity (M) sucrose solution and homogenized with a potter homogenizer. The homogenate was centrifuged at 1000 g at 4° C. for 10 minutes, and the supernatant was further centrifuged at 20000 g at 4° C. for 20 minutes. […] The suspension was used as a crude synaptosome fraction.
(§2) Uptake reaction was performed using each well of a 96-well round-bottom plate and a 200 μl volume in total of a solution containing pargyline (final concentration: 10 μM) and ascorbic acid (final concentration: 0.2 mg/ml).
(§3) Specifically, a solvent, unlabeled 5-HT, and serially diluted test compounds were separately added to the wells, and the synaptosome fraction was added in an amount 1/10 of the final volume to each well and preincubated at 37° C. for 10 minutes. Then, a tritium-labeled 5-HT solution (final concentration: 8 nM) was added thereto to initiate uptake reaction at 37° C. 10 minutes later, the uptake reaction was terminated by suction filtration through a 96-well glass fiber filter plate. Furthermore, the filter was washed with a cold saline and then sufficiently dried. MicroScint-O (PerkinElmer Co., Ltd.) was added thereto, and the residual radioactivity on the filter was measured.
(§4) An uptake value obtained by the addition of only the solvent was defined as 100%, and an uptake value (nonspecific uptake value) obtained by the addition of the unlabeled 5-HT (final concentration: 10 μM) was defined as 0%. A 50%, inhibitory concentration was calculated from the test compound concentrations and inhibitory activities thereat.

[1] = molecular target: Norepinephrine (NE) uptake (Rattus norvegicus, UniProt Q9WTR4); test: Norepinephrine (NE) uptake inhibitory activity using rat brain synaptosome (hippocampus)
Experimental: Measurement of Norepinephrine (NE) Uptake Inhibitory Activity of Test Compound Using Rat Brain Synaptosome
Male Wistar rats were decapitated, and their brains were removed and dissected to remove the hippocampus. The separated hippocampus was placed in a 20-fold weight of a 0.32 molarity (M) sucrose solution and homogenized with a potter homogenizer. The homogenate was centrifuged at 1000 g at 4° C. for 10 minutes, and the supernatant was further centrifuged at 20000 g at 4° C. for 20 minutes. The pellet was suspended in an incubation buffer (20 mM HEPES buffer (pH 7.4) containing 10 mM glucose, 145 mM sodium chloride, 4.5 mM potassium chloride, 1.2 mM magnesium chloride, and 1.5 mM calcium chloride). The suspension was used as a crude synaptosome fraction.
as §2
as §3, with “unlabeled NE,” for “unlabeled 5-HT,”, “tritium-labeled NE” for “tritium-labeled 5-HT”, “concentration: 12” for “concentration: 8”, “C. Ten” for “C. 10”
as §4, with “NE” for “5-HT”, “50%” for “50%,”

Dopamine (DA) uptake = molecular target: T2, Dopamine (DA) uptake (Rattus norvegicus, UniProt P23977); test: Dopamine (DA) uptake inhibitory activity using rat brain synaptosome (corpus striatum); conditions: tritium-labeled DA 2 nM, 37° C. ten minutes, read-out: 50% Inhibitory concentration
T2 construct: The suspension was used as a crude synaptosome fraction; from tissue; host or cells: rat (male Wistar) corpus striatum, crude synaptosome fraction
T2 sequence (P23977 whole entry): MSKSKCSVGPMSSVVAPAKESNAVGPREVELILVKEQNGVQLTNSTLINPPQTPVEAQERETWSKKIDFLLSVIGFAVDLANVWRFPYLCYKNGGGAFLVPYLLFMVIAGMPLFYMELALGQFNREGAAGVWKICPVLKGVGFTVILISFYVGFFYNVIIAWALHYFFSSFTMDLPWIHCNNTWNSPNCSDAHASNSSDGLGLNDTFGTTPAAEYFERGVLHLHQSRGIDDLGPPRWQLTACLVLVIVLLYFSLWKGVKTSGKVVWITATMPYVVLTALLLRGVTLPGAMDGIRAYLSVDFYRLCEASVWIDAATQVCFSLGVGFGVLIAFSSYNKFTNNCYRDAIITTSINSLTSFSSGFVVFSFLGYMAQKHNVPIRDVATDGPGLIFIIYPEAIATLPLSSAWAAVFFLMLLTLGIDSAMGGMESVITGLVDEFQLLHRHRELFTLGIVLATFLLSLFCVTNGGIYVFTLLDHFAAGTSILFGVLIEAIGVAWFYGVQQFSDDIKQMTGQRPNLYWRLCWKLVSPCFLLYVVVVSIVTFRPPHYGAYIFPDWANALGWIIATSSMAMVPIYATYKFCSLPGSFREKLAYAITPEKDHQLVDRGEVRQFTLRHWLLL
Experimental: Measurement of Dopamine (DA) Uptake Inhibitory Activity of Test Compound Using Rat Brain Synaptosome
as §1, with “corpus striatum.” for “frontal cortex.”, “corpus striatum” for “frontal cortex”
Uptake reaction was performed using each well of a 96-well round-bottom plate and a 200 μl volume in total of a solution containing pargyline (final concentration: 10 μM) and ascorbic acid (final concentration: 0.2 mg/mil).
as §3, with “unlabeled DA,” for “unlabeled 5-HT,”, “tritium-labeled DA” for “tritium-labeled 5-HT”, “concentration: 2” for “concentration: 8”, “C. Ten” for “C. 10”
as §4, with “DA” for “5-HT”, “50%” for “50%,”

[2] = read-out: 50% Inhibitory concentration
[3] = tritium-labeled NE 12 nM, 37° C. ten minutes, read-out: 50% inhibitory concentration
[4] = read-out: 50% inhibitory concentration, tritium-labeled NE 12 nM, 37° C. ten minutes

`CC1(C)CN(c2ccc3[nH]c(C#N)cc3c2)[C@H]2CCCC[C@@H]2N1` [Example 582, (4aS,8aS)-1-(2-cyano-1H-indol-5-yl) 3,3-dimethyldecahydroquinoxaline] gave an IC50 (Serotonin (5-HT) uptake; [2]) of 4.1 nM, an IC50 [1, 3] of 6 nM and an IC50 (Dopamine (DA) uptake) of 68.8 nM.
`CC1(C)CN(c2cccc3ncccc23)[C@H]2CCCC[C@H]2N1` [Example 120] gave an IC50 (Serotonin (5-HT) uptake; 50% Inhibitory concentration) of 9.2 nM, an IC50 [1, 4] of 9.2 nM and an IC50 (Dopamine (DA) uptake) of 187 nM.
With `C[C@@H]1CN(c2ccc3sccc3c2)[C@H]2CCCC[C@@H]2N1` [Example 1121] the IC50 (Serotonin (5-HT) uptake; [2]) was 8.5 nM, the IC50 [1, 3] was 0.7 nM and the IC50 (Dopamine (DA) uptake) was 29.9 nM.
`CC1(C)CN(c2ccc3sccc3c2)[C@@H]2CCC[C@@H]2N1` (racemic) [Example 7] was tested, and the IC50 (Serotonin (5-HT) uptake; [2]) was 1 nM, the IC50 [1, 3] was 9.5 nM and the IC50 (Dopamine (DA) uptake) was 78.9 nM.
`CC1(C)CN(c2ccc(Cl)c(Cl)c2)C2CCCC2N1` (stereo not drawn) [Example 10] gave an IC50 (Serotonin (5-HT) uptake; [2]) of 6.2 nM, an IC50 [1, 3] of 8.8 nM and an IC50 (Dopamine (DA) uptake) of 64.8 nM.
With `CC1(C)CN(c2ccc3cc(C#N)oc3c2)[C@@H]2CCCC[C@@H]2N1` [Example 641] the IC50 (Serotonin (5-HT) uptake; [2]) was 2.2 nM, the IC50 [1, 3] was 76 nM and the IC50 (Dopamine (DA) uptake) was 9.7 nM.
Molecule `CC1(C)CN(c2ccccc2Cl)[C@H]2CCCC[C@H]2N1` [Example 165] has an IC50 (Serotonin (5-HT) uptake; [2]) of 12 nM, an IC50 [1, 3] of 2.4 nM and an IC50 (Dopamine (DA) uptake) of 6.8 nM.
`C[C@@H]1CN(c2ccc(F)c3ccccc23)[C@H]2CCCC[C@@H]2N1` [Example 1318] showed an IC50 (Serotonin (5-HT) uptake; [2]) of 40.7 nM, an IC50 [1, 3] of 6.6 nM and an IC50 (Dopamine (DA) uptake) of 83.5 nM.
`CC1(C)CN(c2ccc3[nH]c(C#N)cc3c2)[C@@H]2CCCC[C@H]2N1` [Example 993] was tested, and the IC50 (Serotonin (5-HT) uptake; [2]) was 4.8 nM, the IC50 [1, 3] was 8.7 nM and the IC50 (Dopamine (DA) uptake) was 38.6 nM.
`CC1(C)CN(c2ccc(F)c3c2CCC3)[C@H]2CCCC[C@H]2N1` [Example 791] was tested, and the IC50 (Serotonin (5-HT) uptake; [2]) was 1.4 nM, the IC50 [1, 3] was 0.7 nM and the IC50 (Dopamine (DA) uptake) was 161 nM.
`Cn1c(C#N)cc2cc(N3CC(C)(C)N[C@@H]4CCCC[C@@H]43)ccc21` [Example 150, 5-((4aR,8aS)-3,3-dimethyldecahydroquinoxalin-1-yl)-1-methyl-1H-indole-2-carbonitrile] gave an IC50 (Serotonin (5-HT) uptake; [2]) of 5.4 nM, an IC50 [1, 3] of 23.6 nM and an IC50 (Dopamine (DA) uptake) of 200 nM.
`CC1(C)CN(c2ccc(OC(F)F)c(F)c2)[C@H]2CCCC[C@@H]2N1` [Example 587, (4aS,8aS)-1-(4-(difluoromethoxy)-3-fluorophenyl)-3,3-dimethyldecahydroquinoxaline dihydrochloride] was tested, and the IC50 (Serotonin (5-HT) uptake; [2]) was 0.9 nM, the IC50 [1, 3] was 1.9 nM and the IC50 (Dopamine (DA) uptake) was 76.1 nM.
In the case of `CC1(C)CN(c2ccc(F)c3[nH]ccc23)[C@H]2CCCC[C@H]2N1` [Example 780], the IC50 (Serotonin (5-HT) uptake; [2]) is reported as 6.5 nM, the IC50 [1, 3] is reported as 0.6 nM and the IC50 (Dopamine (DA) uptake) is reported as 4.3 nM.
`CC1(C)CN(c2ccc(Cl)c3occc23)[C@H]2CCCC[C@@H]2N1` [Example 193] was tested, and the IC50 (Serotonin (5-HT) uptake; [2]) was 3.4 nM, the IC50 [1, 3] was 4.4 nM and the IC50 (Dopamine (DA) uptake) was 5.7 nM.
Molecule `C[C@@H]1CN(c2ccc3ccc(C#N)cc3c2)[C@H]2CCCC[C@@H]2N1` [Example 1341] has an IC50 (Serotonin (5-HT) uptake; [2]) of 6.8 nM, an IC50 [1, 3] of 42.7 nM and an IC50 (Dopamine (DA) uptake) of 113 nM.
`Cc1noc(-c2ccc(N3C[C@@H](C)N[C@H]4CCCC[C@@H]43)cc2)n1` [Example 1333] was tested, and the IC50 (Serotonin (5-HT) uptake; [2]) was 84.2 nM, the IC50 [1, 3] was 39.6 nM and the IC50 (Dopamine (DA) uptake) was 73 nM.
`CN1[C@H]2CCCC[C@@H]2N(c2ccc(Cl)c(Cl)c2)CC1(C)C` [Example 247] was tested, and the IC50 (Serotonin (5-HT) uptake; [2]) was 42.8 nM, the IC50 [1, 3] was 6.6 nM and the IC50 (Dopamine (DA) uptake) was 8.7 nM.
Work on `CC1(C)CN(c2cccc3ccsc23)[C@H]2CCCC[C@H]2N1` [Example 130] yielded an IC50 (Serotonin (5-HT) uptake; [2]) of 5.3 nM, an IC50 [1, 3] of 0.5 nM and an IC50 (Dopamine (DA) uptake) of 3.9 nM.
With `CC1(C)CN(c2ccnc3[nH]ccc23)[C@H]2CCCC[C@@H]2N1` [Example 586, (4aS,8aS)-3,3-dimethyl-1-(1H-pyrrolo[2,3-b]pyridin-4-yl)decahydroquinoxaline fumarate] the IC50 (Serotonin (5-HT) uptake; [2]) was 5.2 nM, the IC50 [1, 3] was 4 nM and the IC50 (Dopamine (DA) uptake) was 93 nM.
With `CN1[C@H]2CCCC[C@@H]2N(c2ccc3sccc3c2)CC1(C)C` [Example 187] the IC50 (Serotonin (5-HT) uptake; [2]) was 5.8 nM, the IC50 [1, 3] was 6 nM and the IC50 (Dopamine (DA) uptake) was 12.1 nM.
`CC1(C)CN(c2csc3ccccc23)[C@@H]2CCCC[C@@H]2N1` [Example 577] showed an IC50 (Serotonin (5-HT) uptake; [2]) of 5.2 nM, an IC50 [1, 3] of 5.9 nM and an IC50 (Dopamine (DA) uptake) of 47.9 nM.
For `C[C@@H]1CN(c2ccc(OC(F)F)c(F)c2)[C@H]2CCCC[C@@H]2N1` [Example 1534], the IC50 (Serotonin (5-HT) uptake; 50% Inhibitory concentration) was 38.1 nM, the IC50 [1, 4] was 4 nM and the IC50 (Dopamine (DA) uptake) was 215 nM.
`CC1(C)CN(c2cccc3sccc23)[C@@H]2CCCC[C@@H]2N1` (relative stereo) [Example 27] showed an IC50 (Serotonin (5-HT) uptake; [2]) of 5.8 nM, an IC50 [1, 3] of 0.9 nM and an IC50 (Dopamine (DA) uptake) of 31.9 nM.
`CC1(C)CN(c2cccc3occc23)[C@H]2CCCC[C@@H]2N1` [Example 191] showed an IC50 (Serotonin (5-HT) uptake; [2]) of 3.2 nM, an IC50 [1, 3] of 2.1 nM and an IC50 (Dopamine (DA) uptake) of 13.5 nM.
